Test results published in US20250214977A1, “STAT6 INHIBITORS AND USES THEREOF” (Kymera Therapeutics, Inc., priority 2024, published 2025).
pIC50: −log10 of the molar value.

tested on: Phosphorylation of STAT6 in human A549 cells; test: Phosphorylated STAT6 (pSTAT6) flow cytometry assay in human A549 cells; format: cell-based; conditions: listed as I-393, read-out: STAT6 IL4 pSTAT6 assay in A549 cells: Average IC50
Excerpt: Example 3. Phosphorylated STAT6 (pSTAT6) Flow Cytometry Assay in Human A549 Cells
Phosphorylation of STAT6 in human A549 cells was quantitatively measured using flow cytometry technology.

With `CCC1CN(C)CC1c1cc(C2=CCCN(C(=O)CCn3ccnn3)C2)c(F)c2[nH]c(C(=O)N3CCN(c4ncc(F)cc4OC)CC3)cc12` (stereo not shown) [Example I-1208, 1-[5-[4-(4-ethyl-1-methyl-pyrrolidin-3-yl)-7-fluoro-2-[4-(5-fluoro-3-methoxy-2-pyridyl)piperazine-1-carbonyl]-1H-indol-6-yl]-3,6-dihydro-2H-pyridin-1-yl]-3-(triazol-1-yl)propan-1-one] the pIC50 was > 7.00.

same assay, conditions: listed as I-394, read-out: STAT6 IL4 pSTAT6 assay in A549 cells: Average IC50

`CCC1CN(C)CC1c1cc(C2=CCCN(C(=O)CCn3ccnn3)C2)c(F)c2[nH]c(C(=O)N3CCN(c4ncc(F)cc4OC)CC3)cc12` (stereo not shown) [Example I-1209, 1-[5-[4-(4-ethyl-1-methyl-pyrrolidin-3-yl)-7-fluoro-2-[4-(5-fluoro-3-methoxy-2-pyridyl)piperazine-1-carbonyl]-1H-indol-6-yl]-3,6-dihydro-2H-pyridin-1-yl]-3-(triazol-1-yl)propan-1-one] was tested, and the pIC50 was < 4.00.

same assay, conditions: read-out: STAT6 IL4 pSTAT6 assay in A549 cells: Average IC50

`CCc1ccncc1-c1cc(C2=CCCN(C(=O)CCC(=O)O)C2)c(F)c2[nH]c(C(=O)N3CCN(c4ncc(F)cc4OC)CC3)cc12` [Example I-1170] and `COc1ccccc1-c1cc(C2=CCCN(C(=O)CCn3ccnn3)C2)c(F)c2[nH]c(CN3CCN(c4ncccc4OC)CC3=O)cc12` [Example I-1171] fall in the same range of pIC50: 6.00 to 7.00 for the first, 6.00 to 7.00 for the second.

`CCC1=C(c2cc(C3=CCCN(C(=O)CCn4ccnn4)C3)c(F)c3[nH]c(C(=O)N4CCN(c5ncc(F)cc5OC)CC4)cc23)CCCC1` [Example I-1172] and `CCOC(=O)CC(=O)N1CCC=C(c2cc3cc(C(=O)N4CCN(c5ncc(F)cc5OC)CC4)cc(-c4ccc(C)nc4CC)c3n2CC2CC2)C1` [Example I-1173] fall in the same range of pIC50: 6.00 to 7.00 for the first, 6.00 to 7.00 for the second.

Compared with `CCn1nccc1-c1cc(C2=CCCN(C(C)=O)C2)c(F)c2[nH]c(C(=O)N3Cc4cnn(CC)c4C3)cc12` [Example I-1176], `CN(C)C(=O)c1cc2cc(C3=CCCN(C(=O)CCn4ccnn4)C3)cc(CN3CCCCC3)c2o1` [Example I-1178] is lower in pIC50: > 7.00 for the first, 6.00 to 7.00 for the second. The first is the more potent here.

`CN(C)C(=O)c1cc2cc(C3=CCCN(C(=O)CCn4ccnn4)C3)cc(CN3CCNCC3)c2o1` [Example I-1179] and `CN(C)C(=O)c1cc2cc(C3=CCCN(C(=O)CCn4ccnn4)C3)cc(CN3CC(N)C3)c2o1` [Example I-1180] cannot be ordered by pIC50: > 7.00 for the first, > 7.00 for the second.

`COc1ccccc1-c1cc(C2=CCCN(C(=O)CCn3ccnn3)C2)c(F)c2[nH]c(C(=O)N3CCN(C4CC5CCC4C5)CC3)cc12` (stereo not shown) [Example I-1181] and `COc1ccccc1-c1cc(C2=CCCN(C(=O)CCn3ccnn3)C2)c(F)c2[nH]c(C(=O)N3CCN(Cc4c(C)nn(C)c4C)CC3)cc12` [Example I-1182] cannot be ordered by pIC50: > 7.00 for the first, > 7.00 for the second.

`COc1ccccc1-c1cc(C2=CCCN(C(=O)CCn3ccnn3)C2)c(F)c2[nH]c(C(=O)N3CCN(CC4(C)COC4)CC3)cc12` [Example I-1183] and `COc1ccccc1-c1cc(C2=CCCN(C(=O)CCn3ccnn3)C2)c(F)c2[nH]c(C(=O)N3CCN(CC4CCCO4)CC3)cc12` (stereo not shown) [Example I-1184] cannot be ordered by pIC50: > 7.00 for the first, > 7.00 for the second.

`COc1ccccc1-c1cc(C2=CCCN(C(=O)CCn3ccnn3)C2)c(F)c2[nH]c(C(=O)N3CCN(Cc4nc(C)cs4)CC3)cc12` [Example I-1185] and `CC(=O)N1CCN(c2cc(C3=CCCN(C(=O)CCn4ccnn4)C3)cc3cc(C(=O)N(C)C)oc23)CC1` [Example I-1186] cannot be ordered by pIC50: > 7.00 for the first, > 7.00 for the second.

`CN(C)C(=O)c1cc2ccc(C3CCCN(C(=O)CCn4ccnn4)C3)cc2[nH]1` (stereo not shown) [Example I-1188] and `CN(C)C(=O)c1cc2ccc([C@H]3CCCN(C(=O)CCn4ccnn4)C3)cc2[nH]1` [Example I-1189] fall in the same range of pIC50: 6.00 to 7.00 for the first, 6.00 to 7.00 for the second.

Compared with `COc1ccccc1-c1cc(C2=CCCN(C(=O)C(C)C)C2)c(F)c2cc(C(=O)N(C)C)oc12` [Example I-1190], `CN(C)C(=O)c1cc2c(F)c(C3=CCCN(C(=O)C4Cc5ccccc5CN4C=O)C3)ccc2o1` (stereo not shown) [Example I-1192] is lower in pIC50: 6.00 to 7.00 for the first, 5.00 to 6.00 for the second. The first is the more potent here.

Compared with `COc1ccccc1-c1cc(C2CCCN(C(=O)CCn3ccnn3)C2)c(F)c2[nH]c(C(=O)N(C)C)cc12` (stereo not shown) [Example I-1193], `COc1ccccc1-c1cc([C@H]2CCCN(C(=O)CCn3ccnn3)C2)c(F)c2[nH]c(C(=O)N(C)C)cc12` [Example I-1195] is lower in pIC50: > 7.00 for the first, < 4.00 for the second.

First: COc1ccc(C)cc1-c1cc(C2=CCCN(C(=O)C3Cc4ccccc4CN3C=O)C2)cc2cc(C(=O)N(C)C)oc12 (stereo not shown) [Example I-1197]
Second: COc1ccccc1-c1cc(C2=CCCN(C(=O)CCn3ccnn3)C2)c(F)c2[nH]c(C(=O)N3CCN(Cc4cccn(C)c4=O)CC3)cc12 [Example I-1198]
The pIC50 of the first is lower: 6.00 to 7.00 for the first, > 7.00 for the second. The second is the more potent here.

`COc1ccccc1-c1cc(C2=CCCN(C(=O)CCn3ccnn3)C2)c(F)c2[nH]c(C(=O)N3CCN(CC(=O)NC(C)C)CC3)cc12` [Example I-1200] and `COc1ccccc1-c1cc(C2=CCCN(C(=O)CCn3ccnn3)C2)c(F)c2[nH]c(C(=O)N3CCN(Cc4noc(C)n4)CC3)cc12` [Example I-1201] cannot be ordered by pIC50: > 7.00 for the first, > 7.00 for the second.

First: COc1ccccc1-c1cc(C2=CCCN(C(=O)CCn3ccnn3)C2)c(F)c2[nH]c(C(=O)N3CCN(Cc4ccccc4)CC3)cc12 [Example I-1202]
Second: COc1ccncc1-c1cc(C(=O)N2CCN(c3ncc(F)cc3OC)CC2)cc2cc(C3CCCN(C(=O)CCn4ccnn4)C3)[nH]c12 (stereo not shown) [Example I-1203]
The pIC50 of the first is higher: > 7.00 for the first, 5.00 to 6.00 for the second.

`COc1cc(F)cnc1N1CCN(C(=O)c2cc(-c3cccnc3C3CC3)c3[nH]c(C4CCCN(C(=O)CCn5ccnn5)C4)cc3c2)CC1` (stereo not shown) [Example I-1204] and `CCc1ccncc1-c1cc(C2=CCCC(C(=O)O)C2)c(F)c2[nH]c(C(=O)N3CCN(c4ncc(F)cc4OC)CC3)cc12` (stereo not shown) [Example I-1205] fall in the same range of pIC50: 5.00 to 6.00 for the first, 5.00 to 6.00 for the second.

“(1R)-3-[4-(4-ethyl-3-pyridyl)-7-fluoro-2-[4-(5-fluoro-3-methoxy-2-pyridyl)piperazine-1-carbonyl]-1H-indol-6-yl]cyclohex-3-ene-1-carboxylic acid [Example I-810]” and “(1S)-3-[4-(4-ethyl-3-pyridyl)-7-fluoro-2-[4-(5-fluoro-3-methoxy-2-pyridyl)piperazine-1-carbonyl]-1H-indol-6-yl]cyclohex-3-ene-1-carboxylic acid [Example I-809]” cannot be ordered by pIC50: > 7.00 for the first, > 7.00 for the second.

Compared with “(R)-1-(3-(7-fluoro-2-(4-(5-fluoro-3-methoxypyridin-2-yl)piperazine-1-carbonyl)-4-(1-methylpyrrolidin-3-yl)-1H-indol-6-yl)-5,6-dihydropyridin-1(2H)-yl)-3-(1H-1,2,3-triazol-1-yl)propan-1-one [Example I-812]”, “(R)-5-(1-(2-formyl-1,2,3,4-tetrahydroisoquinoline-3-carbonyl)-1,2,5,6-tetrahydropyridin-3-yl)-7-(2-methoxyphenyl)-N,N-dimethylbenzofuran-2-carboxamide [Example I-804]” is lower in pIC50: > 7.00 for the first, < 4.00 for the second.

First: (S)-1-(5-(7-fluoro-2-(4-(5-fluoro-3-methoxypyridin-2-yl)piperazine-1-carbonyl)-4-(1-methylpyrrolidin-3-yl)-1H-indol-6-yl)-3,6-dihydropyridin-1(2H)-yl)-3-(1H-1,2,3-triazol-1-yl)propan-1-one [Example I-811]
Second: (S)-5-(1-(2-formyl-1,2,3,4-tetrahydroisoquinoline-3-carbonyl)-1,2,5,6-tetrahydropyridin-3-yl)-7-(2-methoxyphenyl)-N,N-dimethylbenzofuran-2-carboxamide [Example I-805]
The pIC50 of the first is higher: > 7.00 for the first, < 4.00 for the second. The first is the more potent here.

For “Methyl 5-(3-(5-(2-(dimethylcarbamoyl)benzofuran-5-yl)-1,2,3,6-tetrahydropyridine-1-carbonyl)-2-formyl-1,2,3,4-tetrahydroisoquinolin-5-yl)pent-4-ynoate [Example I-802]”, the pIC50 was > 7.00.

tested on: Phosphorylation of STAT6 in human PBMC (CD19+ B cells); test: Phosphorylated STAT6 (pSTAT6) flow cytometry assay in human PBMC, IL-4 stimulated; format: cell-based; conditions: compound 1 hour, 1 ng/ml IL-4 for 15 minutes, read-out: STAT6 IL4 pSTAT6 assay in PBMC: Average IC50
Description: Example 2. Phosphorylated STAT6 (pSTAT6) Flow Cytometry Assay in Human PBMC
Phosphorylation of STAT6 in human PBMC was quantitatively measured using flow cytometry technology. Human PBMC were seeded in 96-well plates with a density of 0.3 to 0.5 million cells per well in 100 μl fresh media. Compounds were then added to the assay plates with a final top concentration of up to 30 μM in a 1:3 dilution series with total of 9 doses. The assay plates were incubated for 1 hour at 37° C. under 5% CO2. The cells were then stimulated with 1 ng/ml of IL-4 (R&D Systems, Cat #6507-IL) for 15 minutes, followed by fixation for 30 minutes at 4° C. Cells were spun down at 350 g for 5 minutes. The supernatant was removed and cells were washed once with FACS buffer. Cells were permeabilized with 90% MeOH/H2O for 30 minutes at 4° C., followed by one wash with FACS buffer. Non-specific binding were blocked with human Fc for 1 hour at 4 C, followed by one wash with FACS buffer. AF488 conjugated pSTAT6 antibody (BD Biosciences, Cat #612600, 1:100 dilution) and PE conjugated CD19 antibody (BD Biosciences, Cat #341103, 1:50 dilution) diluted in 100 μl FACS buffer was added to each well with overnight incubation at 4° C. Cells were then washed once with FACS buffer and resuspended in 200 μl of FACS buffer for flow cytometry to quantify pSTAT6 in CD19+ B cells. The data was analyzed by GraphPad Prism and the dose dependent pSTAT6 inhibition was fit using the four-parameter inhibitor vs. response nonlinear regression.

`COC(=O)C1CCC(c2ccc3oc(C(=O)N(C)C)cc3c2)CN1C(=O)CCn1ccnn1` (mixture of isomers) [Example I-1] and `COC(=O)[C@H]1CC[C@@H](c2ccc3oc(C(=O)N(C)C)cc3c2)CN1C(=O)CCn1ccnn1` (single isomer, unassigned) [Example I-151] cannot be ordered by pIC50: < 4.00 for the first, < 4.00 for the second.

`COC(=O)C1CCC(c2ccc3oc(C(=O)N(C)C)cc3c2)CN1C(=O)CCn1ccnn1` (mixture of isomers) [Example I-2] and `COC(=O)[C@H]1CC[C@H](c2ccc3oc(C(=O)N(C)C)cc3c2)CN1C(=O)CCn1ccnn1` (single isomer, unassigned) [Example I-152] cannot be ordered by pIC50: < 4.00 for the first, < 4.00 for the second.

`C[C@H]1CCCCN1C(=O)c1cc2ccc(C3=CCCN(C(=O)CCn4ccnn4)C3)cc2[nH]1` (single isomer, unassigned) [Example I-129] and `C[C@@H]1CCCCN1C(=O)c1cc2ccc(C3=CCCN(C(=O)CCn4ccnn4)C3)cc2[nH]1` (single isomer, unassigned) [Example I-130] cannot be ordered by pIC50: < 4.00 for the first, < 4.00 for the second.
